The subject of this experiment is canine subjects. Nature of the experiment: Eye movement recording of nystagmus in canine subjects (amplitude, NAFX). The experiment is classed as in vivo. Here is the method:
Eye movements were recorded using an EyeLink 1000 remote video recording system, with a sampling rate of 500-1000 Hz.
Efficacy was assessed by video-based eye tracking system wherein eye movement recordings of nystagmus and determination of Nystagmus Acuity Function (NAF, NAFX or eNAFX) was calculated from position and velocity data obtained from calibrated eye movement recordings. Techniques used to collect such data include a scleral search coil, non-contact infrared oculography, video pupillography and electroculography.
Nystagmus Acuity Function—NAF is a derived function that predicts the best-corrected visual acuity possible in subjects with nystagmus. NAF is based upon objective measurements of a subject's waveform characteristics during fixation of a small light-emitting diode and combines the foveation time per cycle and the standard deviations of both eye position and velocity during target foveation into a function that is linearly proportional to best-possible visual acuity.
Evaluation of the nystagmus acuity function (NAF, NAFX, eNAFX) is often used to evaluate the quality of the nystagmus cycle and/or quantify the effect of surgical or pharmaceutical intervention on the nystagmus waveform. […]
Amplitude—The amplitude of nystagmus was measured directly from calibrated eye movement recordings in degrees. […]

“Also recorded” adds a separate entry of the source.

As to `CC1(C)C(/C=C(\Cl)C(F)(F)F)C1C(=O)OC(C#N)c1cccc(Oc2ccccc2)c1` [LC, (R)-cyano(3-phenoxyphenyl)methyl(1S,3S)-rel-3-[(1Z)-2-chloro-3,3,3-trifluoro-1-propenyl]-2,2-dimethylcyclopropanecarboxylate], the “high frequency (9-11) Hz pendular oscillation in eye position recording” value (after two doses of 0.6% topical eye drop, compared to Pre Drop recording of FIG. 1) was “less amplitude as compared to the Pre Drop eye movement recording; also recorded: only present only in extreme gaze”. The effect on nystagmus entry (after two doses of 0.6% w/w formulation) is “significant improvement of nystagmus”.

The record behind these values is patent US9095505B2, “Pyrethroids for treatment of ocular movement disorders” (RBG Group, LTD., priority 2013, dated 2015).
